Data as given in DBAASP.
Converted amounts (≈) assume the structure as drawn. “And” between values parts separate entries of the source, which are not always exact repeats. Equal values may be shown once.

Columns and labels:
Test in all cases: ≥ marks a high value that may be exact or a test limit, other limits are often not marked, values filed in µg/mL are converted to µM
[1] = tested on: Escherichia coli ATCC 25922
[2] = tested on: Staphylococcus aureus ATCC 29213
[3] = tested on: Acinetobacter baumannii ATCC 19606
[4] = tested on: Pseudomonas aeruginosa ATCC 27853
[5] = tested on: Staphylococcus aureus ATCC 25923
Bacillus subtilis = tested on: Bacillus subtilis
Escherichia coli = tested on: Escherichia coli
[6] = tested on: Enterococcus faecalis ATCC 29212
Pseudomonas aeruginosa = tested on: Pseudomonas aeruginosa
Staphylococcus aureus = tested on: Staphylococcus aureus

CC(C)[C@H](NC(=O)[C@H](Cc1c[nH]c2ccccc12)NC(=O)[C@H](CCCCN)NC(=O)[C@@H](N)CCCN=C(N)N)C(=O)N[C@@H](Cc1ccc(O)cc1)C(=O)N[C@@H](Cc1c[nH]c2ccccc12)C(=O)N[C@@H](CCCN=C(N)N)C(=O)N[C@@H](CC(N)=O)C(=O)N[C@@H](CCCN=C(N)N)C(=O)O [RKWVYWRNR]
MIC [1]: 91.7 µM (≈ 125 µg/mL) | MIC [2]: 22.9 µM (≈ 31.3 µg/mL)

CC(C)C[C@H](NC(=O)[C@H](CC(C)C)NC(=O)[C@H](CCCCN)NC(=O)[C@H](CCCCN)NC(=O)[C@H](CC(C)C)NC(=O)[C@H](CCC(N)=O)NC(=O)[C@H](CCCCN)NC(=O)[C@H](CC(C)C)NC(=O)[C@@H](N)Cc1ccccc1)C(N)=O [FLKQLKKLL]
MIC [3]: > 113 µM | MIC [1]: 56.6 µM (≈ 63.9 µg/mL) | MIC [4]: 7.08 µM (≈ 7.99 µg/mL) | MIC [5]: 113 µM (≈ 128 µg/mL)

CC[C@H](C)[C@H](NC(=O)[C@H](CCCN=C(N)N)NC(=O)[C@H](CCC(N)=O)NC(=O)[C@@H](NC(=O)[C@@H](NC(=O)[C@H](CCCN=C(N)N)NC(=O)[C@H](CCCCN)NC(=O)[C@@H](N)Cc1ccccc1)[C@@H](C)CC)C(C)C)C(=O)N[C@@H](CCCCN)C(=O)N[C@@H](CC(=O)O)C(=O)N[C@@H](Cc1cnc[nH]1)C(=O)N[C@@H](CC(C)C)C(=O)N[C@@H](CCCN=C(N)N)C(=O)O [FKRIVQRIKDHLR]
MIC [1]: 10 µM (≈ 17.1 µg/mL) | MIC [2]: > 40 µM

CC[C@H](C)[C@H](N)C(=O)N[C@@H](CC(N)=O)C(=O)N[C@@H](Cc1c[nH]c2ccccc12)C(=O)N[C@@H](CO)C(=O)N[C@@H](CO)C(=O)N[C@H](C(=O)N[C@@H](Cc1ccccc1)C(=O)N[C@@H](CCC(=O)O)C(=O)N[C@@H](CCCCN)C(=O)N[C@H](C(=O)N[C@@H](CCCCN)C(=O)N[C@@H](CC(N)=O)C(=O)N[C@@H](CC(C)C)C(=O)N[C@H](C(N)=O)C(C)C)C(C)C)[C@@H](C)CC [INWSSIFEKVKNLV]
MIC (Bacillus subtilis): ≥ 40 µM | MIC (Escherichia coli): 35 µM (≈ 58.7 µg/mL)

CC[C@H](C)[C@H](NC(=O)[C@@H]1CCCN1C(=O)[C@H](CC(C)C)NC(=O)[C@@H](N)CC(C)C)C(=O)N[C@H](C(=O)NCC(=O)N[C@@H](CC(N)=O)C(=O)N[C@@H](CC(C)C)C(=O)N[C@@H](CC(C)C)C(=O)N[C@@H](CCCCN)C(=O)N[C@@H](CO)C(=O)N[C@@H](CC(C)C)C(=O)N[C@@H](CC(C)C)C(=O)NCC(=O)N[C@@H](Cc1c[nH]c2ccccc12)C(=O)N[C@@H](CCCCN)C(=O)N[C@@H](CCCN=C(N)N)C(=O)N[C@@H](CCCCN)C(=O)N[C@@H](CCCN=C(N)N)C(=O)N[C@@H](Cc1ccccc1)C(=O)NCC(N)=O)C(C)C [LLPIVGNLLKSLLGWKRKRFG]
MIC [6]: 5 µM and 12.5 µM | MIC [4]: 4 µM and 8 µM

CC[C@H](C)[C@H](NC(=O)[C@H](Cc1ccccc1)NC(=O)[C@H](CO)NC(=O)[C@H](CCCCN)NC(=O)[C@H](Cc1c[nH]c2ccccc12)NC(=O)[C@@H](N)CCCCN)C(=O)N[C@@H](CCCCN)C(=O)N[C@@H](CCCCN)C(=O)N[C@@H](C)C(=O)N[C@@H](CCCCN)C(=O)N[C@H](C(=O)N[C@@H](CO)C(=O)N[C@@H](Cc1ccccc1)C(=O)N[C@@H](CC(C)C)C(=O)N[C@@H](Cc1cnc[nH]1)C(=O)N[C@@H](CO)C(=O)N[C@@H](C)C(=O)N[C@@H](CCCCN)C(=O)N[C@@H](CCCCN)C(=O)N[C@@H](Cc1ccccc1)C(N)=O)[C@@H](C)O [KWKSFIKKAKTSFLHSAKKF]
MIC (Pseudomonas aeruginosa): 10.4 µM (≈ 25 µg/mL)

CC(C)C[C@H](NC(=O)[C@H](CC(C)C)NC(=O)[C@H](CCCCN)NC(=O)[C@H](CCCCN)NC(=O)[C@H](CC(C)C)NC(=O)[C@H](Cc1ccc(O)cc1)NC(=O)[C@H](CCCCN)NC(=O)[C@H](CC(C)C)NC(=O)[C@@H](N)Cc1ccccc1)C(N)=O [FLKYLKKLL]
MIC [3]: 13.7 µM and 27.5 µM | MIC [1]: 13.7 µM and 27.5 µM

CC[C@H](C)[C@H](NC(=O)CN)C(=O)N[C@@H](CC(C)C)C(=O)N[C@@H](CO)C(=O)N[C@@H](CC(N)=O)C(=O)N[C@H](C(=O)N[C@@H](CC(C)C)C(=O)NCC(=O)N[C@@H](CCSC)C(=O)NCC(=O)N[C@@H](CCCCN)C(=O)N[C@@H](CCCCN)C(=O)N[C@H](C(=O)N[C@H](C(=O)N[C@H]1CSSC[C@@H](C(=O)O)NC(=O)[C@H](CC(C)C)NC(=O)CNC(=O)[C@H](CO)NC(=O)[C@H](CC(C)C)NC(=O)CNC1=O)C(C)C)[C@@H](C)CC)C(C)C [GILSNVLGMGKKIVCGLSGLC]
MIC (Escherichia coli): 70 µM (≈ 144 µg/mL) | MIC (Staphylococcus aureus): > 100 µM

CC(=O)N[C@@H](CCC(N)=O)C(=O)N[C@@H](C)C(=O)N[C@@H](CCCCN)C(=O)O [QAK]
MIC [1]: 10.9 µM (≈ 4.21 µg/mL) | MIC [2]: 21.7 µM (≈ 8.41 µg/mL)

CC[C@H](C)[C@H](NC(=O)CN)C(=O)NCC(=O)N[C@@H](CCCCN)C(=O)N[C@@H](Cc1ccccc1)C(=O)N[C@H](C(=O)N[C@@H](Cc1cnc[nH]1)C(=O)N[C@@H](C)C(=O)N[C@@H](C)C(=O)N[C@@H](CCCCN)C(=O)N[C@@H](CCCCN)C(=O)N[C@@H](Cc1ccccc1)C(=O)NCC(=O)N[C@@H](CCCCN)C(=O)N[C@@H](CC(C)C)C(=O)N[C@@H](Cc1ccccc1)C(=O)N[C@H](C(=O)NCC(=O)N[C@@H](CCC(=O)O)C(=O)N[C@H](C(=O)N[C@@H](CCSC)C(=O)N[C@@H](CC(N)=O)C(=O)N[C@@H](CO)C(N)=O)[C@@H](C)CC)[C@@H](C)CC)[C@@H](C)CC [GIGKFIHAAKKFGKLFIGEIMNS]
MIC (Escherichia coli): 2.4 µM (≈ 6.01 µg/mL) | MIC (Pseudomonas aeruginosa): 23.1 µM (≈ 57.8 µg/mL) | MIC (Staphylococcus aureus): 9.6 µM (≈ 24.1 µg/mL)

CC[C@H](C)[C@H](NC(=O)[C@H](Cc1ccccc1)NC(=O)[C@H](CO)NC(=O)[C@H](CCCCN)NC(=O)[C@H](Cc1c[nH]c2ccccc12)NC(=O)[C@@H](N)CCCCN)C(=O)N[C@@H](CCCCN)C(=O)N[C@@H](CCCCN)C(=O)N[C@@H](CC(C)C)C(=O)N[C@H](C(=O)N[C@@H](CO)C(=O)N[C@@H](CCCCN)C(=O)N[C@@H](Cc1ccccc1)C(=O)N[C@@H](CC(C)C)C(=O)N[C@@H](Cc1cnc[nH]1)C(=O)N[C@@H](CO)C(=O)N[C@@H](C)C(=O)N[C@@H](CC(=O)O)C(=O)N[C@@H](CCCCN)C(=O)N[C@@H](Cc1ccccc1)C(N)=O)[C@@H](C)O [KWKSFIKKLTSKFLHSADKF]
MIC (Pseudomonas aeruginosa): 10.2 µM (≈ 25 µg/mL)

CC(C)C[C@H](NC(=O)[C@H](CCCCN)NC(=O)CNC(=O)[C@H](CC(C)C)NC(=O)[C@H](CC(C)C)NC(=O)[C@H](C)NC(=O)[C@H](CC(N)=O)NC(=O)[C@H](CC(C)C)NC(=O)[C@H](C)NC(=O)[C@H](CCC(N)=O)NC(=O)CNC(=O)[C@@H](NC(=O)[C@H](Cc1ccccc1)NC(=O)CNC(=O)[C@H](CC(C)C)NC(=O)[C@@H](N)Cc1ccccc1)C(C)C)C(N)=O [FLGFVGQALNALLGKL]
MIC [3]: > 64 µM | MIC [6]: > 64 µM | MIC [1]: > 64 µM | MIC [2]: 32 µM (≈ 53.1 µg/mL)

CC(C)C[C@H](NC(=O)[C@H](Cc1ccc(O)cc1)NC(=O)[C@H](CCCCN)NC(=O)[C@H](Cc1c[nH]c2ccccc12)NC(=O)[C@H](Cc1ccccc1)NC(=O)[C@H](CCCCN)NC(=O)[C@H](CCCN=C(N)N)NC(=O)[C@@H](N)Cc1c[nH]c2ccccc12)C(=O)N[C@@H](CCCCN)C(N)=O [WRKFWKYLK]
MIC [6]: 185 µM and > 92.3 µM | MIC [1]: 22.9 µM (≈ 31 µg/mL) | MIC [2]: 22.9 µM (≈ 31 µg/mL)

CC[C@H](C)[C@H](NC(=O)[C@@H](NC(=O)[C@H](CO)NC(=O)[C@@H]1CCCN1C(=O)[C@@H](NC(=O)[C@@H](NC(=O)[C@H](CO)NC(=O)[C@H](CO)NC(=O)[C@H](CC(C)C)NC(=O)[C@H](C)NC(=O)[C@H](CO)NC(=O)[C@H](CC(C)C)NC(=O)[C@H](C)NC(=O)[C@H](C)NC(=O)CNC(=O)[C@H](CC(C)C)NC(=O)[C@@H](N)CC(C)C)C(C)C)[C@@H](C)CC)C(C)C)C(=O)N[C@@H](CO)C(=O)N[C@@H](Cc1c[nH]c2ccccc12)C(=O)N[C@@H](Cc1ccccc1)C(=O)N[C@@H](CCC(N)=O)C(=O)N[C@@H](CCCCN)C(N)=O [LLGAALSALSSVIPSVISWFQK]
MIC [3]: 32 µM (≈ 73.2 µg/mL) | MIC [6]: 16 µM (≈ 36.6 µg/mL) | MIC [1]: > 64 µM | MIC [2]: 4 µM (≈ 9.15 µg/mL) | MIC (Staphylococcus aureus): 8 µM (≈ 18.3 µg/mL)
